Measured values: ChEMBL document CHEMBL3885881, “DrugMatrix”

Organism: Rattus norvegicus
Experiment: DrugMatrix - Regimen: Daily Repeat
Type: toxicity, organism-based, Sprague-Dawley
Design: regimen Daily Repeat, gender Male, age 6-8 weeks
Details: in vivo, po, route oral GAVAGE, vehicle 100 % WATER; for ABSOLUTE BASOPHIL / ABSOLUTE EOSINOPHIL / ABSOLUTE LYMPHOCYTE / ABSOLUTE MONOCYTE / ABSOLUTE SEGMENTED NEUTROPHIL / BASOPHIL / EOSINOPHIL / ERYTHROCYTE COUNT / HEMATOCRIT / HEMOGLOBIN / LEUKOCYTE COUNT / LYMPHOCYTE / MEAN CORPUSCULAR HEMOGLOBIN / MEAN CORPUSCULAR HEMOGLOBIN CONCENTRATION / MEAN CORPUSCULAR VOLUME / MONOCYTE / NEUTROPHIL / NUCLEATED RED BLOOD CELLS / PLATELET COUNT: tissue Blood; for ALANINE AMINOTRANSFERASE / ALBUMIN / ALKALINE PHOSPHATASE / ASPARTATE AMINOTRANSFERASE / BLOOD UREA NITROGEN / CARBON DIOXIDE / CHLORIDE / CHOLESTEROL / CREATINE PHOSPHOKINASE / CREATININE / GLUCOSE / LACTATE DEHYDROGENASE / LIPASE / PHOSPHORUS / POTASSIUM / SODIUM / TOTAL BILIRUBIN / TOTAL PROTEIN / URIC ACID: tissue Plasma
[1] = 2 mg/kg, 120 h, dose level Low, time 5 day
[2] = 2000 mg/kg, 72 h, dose level High, time 3 day
[3] = 2000 mg/kg, 120 h, dose level High, time 5 day

CC(C)(C)c1ccc(C(=O)CCCN2CCC(OC(c3ccccc3)c3ccccc3)CC2)cc1 [EBASTINE]
ABSOLUTE BASOPHIL [1]: 0 CELLS/uL
ABSOLUTE EOSINOPHIL [1]: 268.33 CELLS/uL
ABSOLUTE LYMPHOCYTE [1]: 11875.67 CELLS/uL
ABSOLUTE MONOCYTE [1]: 285.33 CELLS/uL
ABSOLUTE SEGMENTED NEUTROPHIL [1]: 1837.33 CELLS/uL
BASOPHIL [1]: 0%
EOSINOPHIL [1]: 1.67%
ERYTHROCYTE COUNT [1]: 5.47 x10E6/uL
HEMATOCRIT [1]: 34.03%
HEMOGLOBIN [1]: 13.83 G/DL
LEUKOCYTE COUNT [1]: 14.27 x10E3/uL
LYMPHOCYTE [1]: 83.33%
MEAN CORPUSCULAR HEMOGLOBIN [1]: 25.3 pg
MEAN CORPUSCULAR HEMOGLOBIN CONCENTRATION [1]: 40.67 G/DL
MEAN CORPUSCULAR VOLUME [1]: 62.27 fL
MONOCYTE [1]: 2%
NEUTROPHIL [1]: 13%
NUCLEATED RED BLOOD CELLS [1]: 0 /100WBC
PLATELET COUNT [1]: 1267.33 x10E3/uL
ALANINE AMINOTRANSFERASE [1]: 45.33 u/L
ALBUMIN [1]: 4.3 G/DL
ALKALINE PHOSPHATASE [1]: 377.33 u/L
ASPARTATE AMINOTRANSFERASE [1]: 74 u/L
BLOOD UREA NITROGEN [1]: 15.67 mg/dL
CARBON DIOXIDE [1]: 27.33 mmol/L
CHLORIDE [1]: 101 MEQ/L
CHOLESTEROL [1]: 75 mg/dL
CREATINE PHOSPHOKINASE [1]: 212.67 u/L
CREATININE [1]: 0.24 mg/dL
GLUCOSE [1]: 160.33 mg/dL
LACTATE DEHYDROGENASE [1]: 207.67 u/L
LIPASE [1]: 10 u/L
PHOSPHORUS [1]: 12.17 mg/dL
POTASSIUM [1]: 6.8 MEQ/L
SODIUM [1]: 140.47 MEQ/L
TOTAL BILIRUBIN [1]: 0.2 mg/dL
TOTAL PROTEIN [1]: 5.9 G/DL
URIC ACID [1]: 1.87 mg/dL
ABSOLUTE BASOPHIL [2]: 0 CELLS/uL
ABSOLUTE EOSINOPHIL [2]: 34.67 CELLS/uL
ABSOLUTE LYMPHOCYTE [2]: 11326.67 CELLS/uL
ABSOLUTE MONOCYTE [2]: 253 CELLS/uL
ABSOLUTE SEGMENTED NEUTROPHIL [2]: 2019 CELLS/uL
BASOPHIL [2]: 0%
EOSINOPHIL [2]: 0.33%
ERYTHROCYTE COUNT [2]: 6 x10E6/uL
HEMATOCRIT [2]: 36.1%
HEMOGLOBIN [2]: 14.77 G/DL
LEUKOCYTE COUNT [2]: 13.63 x10E3/uL
LYMPHOCYTE [2]: 83%
MEAN CORPUSCULAR HEMOGLOBIN [2]: 24.63 pg
MEAN CORPUSCULAR HEMOGLOBIN CONCENTRATION [2]: 40.9 G/DL
MEAN CORPUSCULAR VOLUME [2]: 60.27 fL
MONOCYTE [2]: 1.67%
NEUTROPHIL [2]: 15%
NUCLEATED RED BLOOD CELLS [2]: 0.33 /100WBC
PLATELET COUNT [2]: 1204 x10E3/uL
ALANINE AMINOTRANSFERASE [2]: 96.33 u/L
ALBUMIN [2]: 3.67 G/DL
ALKALINE PHOSPHATASE [2]: 316 u/L
ASPARTATE AMINOTRANSFERASE [2]: 119.67 u/L
BLOOD UREA NITROGEN [2]: 13.67 mg/dL
CARBON DIOXIDE [2]: 23.67 mmol/L
CHLORIDE [2]: 103.67 MEQ/L
CHOLESTEROL [2]: 57.33 mg/dL
CREATINE PHOSPHOKINASE [2]: 1102 u/L
CREATININE [2]: 0.21 mg/dL
GLUCOSE [2]: 195 mg/dL
LACTATE DEHYDROGENASE [2]: 227 u/L
LIPASE [2]: 8.67 u/L
PHOSPHORUS [2]: 11.03 mg/dL
POTASSIUM [2]: 4.81 MEQ/L
SODIUM [2]: 144.03 MEQ/L
TOTAL BILIRUBIN [2]: 0.1 mg/dL
TOTAL PROTEIN [2]: 5.2 G/DL
URIC ACID [2]: 1.47 mg/dL
ABSOLUTE BASOPHIL [3]: 0 CELLS/uL
ABSOLUTE EOSINOPHIL [3]: 0 CELLS/uL
ABSOLUTE LYMPHOCYTE [3]: 11532 CELLS/uL
ABSOLUTE MONOCYTE [3]: 384.67 CELLS/uL
ABSOLUTE SEGMENTED NEUTROPHIL [3]: 2350 CELLS/uL
BASOPHIL [3]: 0%
EOSINOPHIL [3]: 0%
ERYTHROCYTE COUNT [3]: 6.72 x10E6/uL
HEMATOCRIT [3]: 41.1%
HEMOGLOBIN [3]: 16.37 G/DL
LEUKOCYTE COUNT [3]: 14.27 x10E3/uL
LYMPHOCYTE [3]: 79.67%
MEAN CORPUSCULAR HEMOGLOBIN [3]: 24.4 pg
MEAN CORPUSCULAR HEMOGLOBIN CONCENTRATION [3]: 39.83 G/DL
MEAN CORPUSCULAR VOLUME [3]: 61.3 fL
MONOCYTE [3]: 3%
NEUTROPHIL [3]: 17.33%
NUCLEATED RED BLOOD CELLS [3]: 0 /100WBC
PLATELET COUNT [3]: 1272.67 x10E3/uL
ALANINE AMINOTRANSFERASE [3]: 120.67 u/L
ALBUMIN [3]: 3.9 G/DL
ALKALINE PHOSPHATASE [3]: 248 u/L
ASPARTATE AMINOTRANSFERASE [3]: 112.33 u/L
BLOOD UREA NITROGEN [3]: 16.33 mg/dL
CARBON DIOXIDE [3]: 28 mmol/L
CHLORIDE [3]: 105.67 MEQ/L
CHOLESTEROL [3]: 47 mg/dL
CREATINE PHOSPHOKINASE [3]: 523 u/L
CREATININE [3]: 0.22 mg/dL
GLUCOSE [3]: 151 mg/dL
LACTATE DEHYDROGENASE [3]: 262.67 u/L
LIPASE [3]: 8 u/L
PHOSPHORUS [3]: 10.77 mg/dL
POTASSIUM [3]: 4.79 MEQ/L
SODIUM [3]: 145.73 MEQ/L
TOTAL BILIRUBIN [3]: 0.13 mg/dL
TOTAL PROTEIN [3]: 5.13 G/DL
URIC ACID [3]: 1.23 mg/dL
